Measured values: ChEMBL document CHEMBL1139944, “Synthesis and evaluation of new difluoromethyl azoles as antileishmanial agents” (Eur J Med Chem, 2007)

System: Leishmania amazonensis
Experiment: Antileishmanial activity against Leishmania amazonensis promastigote by MTT method
Type: functional, organism-based

Structure (SMILES)	IC50 [µM]
O=Cc1cn(-c2cccc(Cl)c2)nn1	2.8
FC(F)c1cn(-c2cccc(Cl)c2)nn1	2.6
Cc1ncc(C(F)F)n1-c1ccc(Cl)cc1	1.7
